US7728028B2, “Substituted imidazoline compounds” (Gruenenthal GmbH, priority 2005, dated 2010)

Target: T1, human μ-opiate receptor (Homo sapiens, UniProt P35372)
T1 construct: purchased PerkinElmer Life Sciences, Zaventem, Belgium RB-HOM; host or cells: CHO-K1 cells (recombinant expression; membrane preparation)
Experiment: Affinity for the human μ-opiate receptor ([3H]-naloxone displacement, SPA)
Conditions: Table 2, Examples 11-161; test substance 1 μmole/l; inhibition of specific [3H]-naloxone binding; CHO-K1 membranes; read-out: μ-Opioid receptor, % inhibition [1 μM]
How it was run: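 CHO-K1 membranes expressing the receptor, incubated 90 min at room temperature with 1 nmol/l [3H]-naloxone and WGA-SPA beads in 50 mmol/l Tris-HCl with 0.06% BSA. Non-specific binding defined with 100 μmol/l naloxone. Value is % inhibition of specific binding at 1 μmol/l test substance.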

T1 sequence (P35372 whole entry): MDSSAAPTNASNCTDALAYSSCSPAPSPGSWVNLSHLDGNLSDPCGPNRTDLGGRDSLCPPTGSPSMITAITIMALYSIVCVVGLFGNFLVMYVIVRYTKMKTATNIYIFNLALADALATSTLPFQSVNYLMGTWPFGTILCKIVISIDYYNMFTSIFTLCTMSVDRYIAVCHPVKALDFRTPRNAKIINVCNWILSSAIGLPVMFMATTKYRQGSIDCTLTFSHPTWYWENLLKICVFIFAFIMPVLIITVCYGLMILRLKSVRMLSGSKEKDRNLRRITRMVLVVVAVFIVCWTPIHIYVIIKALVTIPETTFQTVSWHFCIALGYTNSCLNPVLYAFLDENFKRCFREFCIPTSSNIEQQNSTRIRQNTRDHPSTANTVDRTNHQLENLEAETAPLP

Structure (SMILES) | inhibition at 1 µM [%]
COC(=O)C1(CSC)N=CN(C2CCCCC2)C1CC1CCC(C(c2ccc(F)cc2)N(C)C)CC1 (stereo not shown) [Example 153, 1-cyclohexyl-5-{4-[dimethylamino-(4-fluorophenyl)-methyl]-cyclohexylmethyl}-4-methylsulfanylmethyl-4,5-dihydro-1H-imidazole-4-carboxylic acid methyl ester] | 93
COC(=O)CCC1(C(=O)OC)N=CN(C2CCCCC2)C1CC1CCC(C(CCc2ccccc2)N(C)C)CC1 (stereo not shown) [Example 154, 1-cyclohexyl-5-[4-(1-dimethylamino-3-phenylpropyl)-cyclohexylmethyl]-4-(2-methoxycarbonylethyl)-4,5-dihydro-1H-imidazole-4-carboxylic acid methyl ester] | 82
COC(=O)C1(CSC)N=CN(C2CCCCC2)C1CC1CCC(C(CCc2ccccc2)N(C)C)CC1 (stereo not shown) [Example 155, 1-cyclohexyl-5-[4-(1-dimethylamino-3-phenylpropyl)-cyclohexylmethyl]-4-methylsulfanylmethyl-4,5-dihydro-1H-imidazole-4-carboxylic acid methyl ester] | 86
COC(=O)C1(CSCc2ccccc2)N=CN(C2CCCCC2)C1CC1CCC(C(CCc2ccccc2)N(C)C)CC1 (stereo not shown) [Example 156, 4-benzylsulfanylmethyl-1-cyclohexyl-5-[4-(1-dimethylamino-3-phenylpropyl)-cyclohexylmethyl]-4,5-dihydro-1H-imidazole-4-carboxylic acid methyl ester] | 92
CCCN1C=NC(CCC(=O)OC)(C(=O)OC)C1CC1CCC(C(c2cccc(F)c2)N(C)C)CC1 (stereo not shown) [Example 157, 5-{4-[dimethylamino-(3-fluorophenyl)-methyl]-cyclohexylmethyl}-4-(2-methoxycarbonylethyl)-1-propyl-4,5-dihydro-1H-imidazole-4-carboxylic acid methyl ester] | 91
CCCN1C=NC(CSC)(C(=O)OC)C1CC1CCC(C(c2cccc(F)c2)N(C)C)CC1 (stereo not shown) [Example 158, 5-{4-[dimethylamino-(3-fluorophenyl)-methyl]-cyclohexylmethyl}-4-methylsulfanylmethyl-1-propyl-4,5-dihydro-1H-imidazole-4-carboxylic acid methyl ester] | 95
CCCN1C=NC(CCC(=O)OC)(C(=O)OC)C1CC1CCC(C(c2ccc(F)cc2)N(C)C)CC1 (stereo not shown) [Example 159, 5-{4-[dimethylamino-(4-fluorophenyl)-methyl]-cyclohexylmethyl}-4-(2-methoxycarbonylethyl)-1-propyl-4,5-dihydro-1H-imidazole-4-carboxylic acid methyl ester] | 79
CCCN1C=NC(CSC)(C(=O)OC)C1CC1CCC(C(c2ccc(F)cc2)N(C)C)CC1 (stereo not shown) [Example 160, 5-{4-[dimethylamino-(4-fluorophenyl)-methyl]-cyclohexylmethyl}-4-methylsulfanylmethyl-1-propyl-4,5-dihydro-1H-imidazole-4-carboxylic acid methyl ester] | 74
CCCN1C=NC(CSCc2ccccc2)(C(=O)OC)C1CC1CCC(C(c2ccc(F)cc2)N(C)C)CC1 (stereo not shown) [Example 161, 4-benzylsulfanylmethyl-5-{4-[dimethylamino-(4-fluorophenyl)-methyl]-cyclohexylmethyl}-1-propyl-4,5-dihydro-1H-imidazole-4-carboxylic acid methyl ester] | 91

System: not given
Experiment: not given
Conditions: not given

melting point [°C] | Structure (SMILES)
40 to 43 | CN(C)C(c1cccc(F)c1)C1CCC(C=O)CC1 (stereo not shown)
